Patent publication US20150335610A1, “PDK4 INHIBITOR AND USE THEREOF” (priority 2012, published 2015)

Assays:
[1] = tested on: cells cancerated by Ras; assay: Anchorage-independent sphere growth of cells cancerated by Ras; format: cell-based; details: at μM to 10 μM order
[2] = target: PDK4 (Homo sapiens, UniProt Q16654); assay: PDK4-inhibitory activity by off-chip mobility shift assay (phosphorylation of PDH E1 subunit); format: biochemical; details: for IC50: phosphorylation of E1 subunit of PDH, 100 μM ATP, human recombinant PDK
PDK4, sequence (Q16654 whole entry): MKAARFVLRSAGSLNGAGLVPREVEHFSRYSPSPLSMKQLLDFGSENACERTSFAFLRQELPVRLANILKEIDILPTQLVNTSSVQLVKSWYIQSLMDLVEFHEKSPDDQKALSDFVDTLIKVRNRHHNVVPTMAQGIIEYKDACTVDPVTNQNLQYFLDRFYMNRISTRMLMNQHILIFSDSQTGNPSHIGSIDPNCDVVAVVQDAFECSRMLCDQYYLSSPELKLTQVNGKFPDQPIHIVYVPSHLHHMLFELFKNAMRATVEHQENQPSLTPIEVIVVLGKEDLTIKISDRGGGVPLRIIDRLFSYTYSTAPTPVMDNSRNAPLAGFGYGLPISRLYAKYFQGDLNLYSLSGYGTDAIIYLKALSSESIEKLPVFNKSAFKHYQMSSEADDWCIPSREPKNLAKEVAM
Description: The PDK2 and PDK4-inhibitory activities were determined by measuring the phosphorylation of the E1 subunit of PDH in the presence of 100 μM ATP.
1) 5 μL of 4-fold concentrated solutions of test substances, 5 μL of 4-fold concentrated solutions of substrates (recombinant human PDH)/ATP/metal, and 10 μL of 2-fold concentrated solutions of human recombinant PDK were prepared with an assay buffer (20 mM HEPES, 0.01% Triton X-100, 2 mM DTT, pH 7.5) and then were mixed in the wells of a polypropylene 384-well plate, followed by reactions for five hours at room temperature.
2) Reactions were terminated by adding 60 μL of Termination Buffer (QuickScout Screening Assist MSA; Carna Biosciences, Inc.).
3) Peptide substrates and phosphorylated peptides in the reaction solutions were separated by LabChip3000 system (Caliper Life Science) and quantified (gel shift assay). The phosphorylation activity was assessed by product ratios (P/(P+S)) calculated from the peptide substrate peak height (S) and the phosphorylated peptide peak height (P).
4) The inhibitory percentage was calculated as follows.

[3] = tested on: normal cells; assay: Anchorage-independent growth of normal cells; format: cell-based; details: even at the order of several tens of μM
[4] = tested on: HeLaS3 cells; assay: Soft agar colony formation assay of cancer cells HeLaS3; format: cell-based; details: at 3 μM; eight days of culture; FIG. 14
Description: A conventional method was employed for a soft agar colony formation assay of cancer cells HeLaS3 (C. Oneyama et. al. Genes to Cells 2008; 13: 1 to 129). The HeLaS3 cells (4×10^4) were mixed with 3 ml of soft agar medium (Dulbecco modified Eagle's medium, 10% calf serum, 0.36% agar) and poured into a well of 6 cm-cell culture plate, which was added 5 ml of the base agar medium (Dulbecco modified Eagle's medium, 10% calf serum, 0.7% agar) in advance. After eight days of culture in a carbon dioxide gas incubator at 37° C., colonies were stained with MTT (3-(4,5-dimethylthiazol-2-yl)-2,5-diphenyltetrazolium bromide).

[5] = tested on: pyruvate dehydrogenase (PDH); format: in vivo, mouse; details: KIS7 2.8 mg/kg/day, DCA 56 mg/kg/day i.p., FIG. 10
[6] = background art, Non-Patent Literature 4; cited from earlier work

| SMILES | anchorage-independent sphere growth of cells cancerated by Ras [1] | IC50 [2] | anchorage-independent growth of normal cells [3] | colony formation of HeLaS3 in soft agar [4] | PDH enzyme activity in liver tissue [5] | dose inhibiting PDK4 compared with DCA and Radicicol ([2]; FIG. 4) | effect on PDK4 activity (activation or inhibition) ([2]; comparison with known PDK inhibitory substances, FIG. 4) | side effects [6] |
| --- | --- | --- | --- | --- | --- | --- | --- | --- |
| Cc1cccc2c3c(ccc12)C1=C(C(=O)C3=O)[C@@H](C)CO1 [KIS116, dihydrotanshinone I] | suppressed the anchorage-independent sphere growth | < 4 µM | did not inhibit |  |  |  |  |  |
| CC1(C)CCC2=C(O1)c1ccccc1C(=O)C2=O [KIS24, β-lapachone] | suppressed the anchorage-independent sphere growth | 3 µM |  | inhibited the colony formation |  |  |  |  |
| Cc1cc2c(C(C)C)c(O)c(O)c(C=O)c2c(O)c1-c1c(C)cc2c(C(C)C)c(O)c(O)c(C=O)c2c1O [KIS7, gossypol] | suppressed the anchorage-independent sphere growth | 4 µM | did not inhibit | inhibited the colony formation | equivalent PDH activities to non-infected mice | far lower dose as compared with DCA and Radicicol | inhibited PDK4 |  |
| O=C(O)C(Cl)Cl [DCA, dichloroacetic acid, reference compound] |  |  |  |  | equivalent PDH activities to non-infected mice |  |  | severe side effects such as neurotoxicity |
| C[C@H]1COC2=C1C(=O)C(=O)c1c2ccc2c1CCCC2(C)C [KIS37, cryptotanshinone] | suppressed the anchorage-independent sphere growth | 11 µM | did not inhibit | inhibited the colony formation |  |  |  |  |
| Cc1cc2c(C(C)C)c(O)c(O)c(/C=N/c3ccccc3C(=O)O)c2c(O)c1-c1c(C)cc2c(C(C)C)c(O)c(O)c(/C=N/c3ccccc3C(=O)O)c2c1O [KIS28] |  | 13.2 µM |  |  |  |  |  |  |
